Patent US20180171411A1, “GFRalpha1 AS A BIOMARKER FOR CISPLATIN-INDUCED CHEMORESISTANCE AND METASTASIS” (THE BOARD OF REGENTS OF THE UNIVERSITY OF TEXAS SYSTEM, priority 2015, published 2018)

Legend:
MG-63/GFRα1 tumors = test: MG-63/GFRα1 xenograft in BALB/c nude mice; type: in vivo; details: CQ 60 mg/kg, cisplatin 3 mg/kg, once a week
Experimental: FIG. 5. GFRα1-mediated autophagy promotes chemoresistance and tumor growth in vivo. (a) BALB/c nude mice (n =40) were injected with MG-63 cells that were transfected with either control or GFRα1 expressing vector. Tumor volume was measured every 3 or 4 days. Data are shown as mean±SEM. ** p<0.05. (b) BALB/c nude mice (n=20) were injected with MG-63 cells that were transfected with either control or GFRα1 shRNA. Tumor volume was measured every 3 or 4 days. Data are shown as mean±SEM. ** p<0.05. (c) Tumors that were generated from mice injected with MG-63 cells containing GFRα1 expressing vector were directly injected with PBS, CQ, cisplatin, or cisplatin+CQ. Tumor volume was measured every 4 days. Data are shown as mean±SEM. ** p<0.05 vs PBS, CQ, or cisplatin-treated tumors. (d) Left, representative images of immunofluorescence staining of HMGB1 in a section from tumors generated from mice injected with MG-63 cells containing GFRα1 expressing vector and then treated with PBS, CQ, cisplatin, or cisplatin+CQ. Right, quantitative analysis of percentage of cytoplasmic HMGB1-positive cells in HMGB1-positive tumors. The values are represented as a mean±s.d.m. (n=3). ** denotes p<0.05 by t-test. (e) Left, representative images of TUNEL-positive cells in a section from tumors generated from mice injected with MG-63 cells containing GFRα1 expressing vector and then treated with PBS, CQ, cisplatin, or cisplatin+CQ. Right, quantitative analysis of percentage of TUNEL-positive cells in HMGB1-positive tumors. The values are represented as a mean±s.d.m. (n=3). ** denotes p<0.05 by t-test. (0 Survival rate of mice injected with MG-63 cells containing GFRα1 expressing vector and then treated with either cisplatin or cisplatin+CQ. (g) Representative images of immunohistochemical staining of GFRα1 in a section from human osteosarcoma patient before and after cisplatin treatment. (h) Representative images of immunofluorescence staining of GFRα1 and HMGB1 in a section from human osteosarcoma patient before and after cisplatin treatment.
Tumor formation in nude mice. The mice used in this study were 6-week-old female BALB/c nude mice purchased from Orient Bio Inc. (Seongnam, Korea). […] The tumor size was measured with a caliper every 3 or 4 days. […] The tumor size was measured with a caliper every 4 days. […] were calculated from caliper measurements of tumor dimensions in mm using the formula for a prolate ellipsoid: (L×W^2)/2 where L is the longer of the two-measurements.
Statistical analysis. Survival data was analyzed by the Kaplan-Meier and log-rank test with GraphPad Prism v5.04 (GraphPad Software, La Jolla Calif.). Plating efficiency (PE, %)=(Number of colonies counted/Number of cells plated)×100. […] All values are expressed as the mean±standard deviation (SD). […]

[1] = system: Src/AMPK signaling in MG-63 cells; test: Immunoblot of Src/AMPK/mTOR signaling; type: cell-based, human; details: cisplatin 20 μM, 24 hr
Experimental: FIG. 4. GFRα1 regulates autophagy by Src/AMPK signaling in osteosarcoma cells. (a-b) Immunoblot analysis of osteosarcoma cell lysates with antibodies specific for GFRα1, p-Src, Src, p-AMPK, AMPK, p-mTOR, mTOR, p-p70 S6Kinase, Beclin 1, HMGB1, LC3, and β-actin. (a) MG-63 and cells were treated with cisplatin (20 μM) for 24 hr. (b) Control and GFRα1-deficient MG-63 cells were treated with cisplatin (20 μM) for 24 hr. (c-e) Immunoblot analysis of osteosarcoma cell lysates with antibodies specific for GFRα1, p-Src, Src, p-AMPK, AMPK, LC3, and β-actin. (c) Control and Src-deficient MG-63 cells were treated with cisplatin (20 μM) for 24 hr. (d) MG-63 cells were cultured in the presence or absence of PP1 (5 μM) and then treated with cisplatin (20 μM) for 24 hr. (e) MG-63 cells were cultured in the presence or absence of Compound C and then treated with cisplatin (20 μM) for 24 hr. (f) Cell viability of MG-63 cells after cisplatin treatment in the presence of PP1. MG-63 cells were cultured with DMSO or PP1 (2, 5 μM) and then treated with cisplatin (20 μM) for 24 hr. Cell viability was measured using the WST-1 assay. The values are represented as a mean±s.d.m. (n=3). ** denotes p<0.05 by t-test. (g) Cell viability of MG-63 cells after cisplatin treatment in the presence of Compound C. MG-63 cells were cultured with DMSO or Compound C (5, 10 μM) and then treated with cisplatin (20 μM) for 24 hr. Cell viability was measured using the WST-1 assay. The values are represented as a mean±s.d.m. (n=3). ** denotes p<0.05 by t-test.
Immunoblotting. Cells were washed with PBS and lysed in RIPA Buffer (Pierce, Rockford, Ill.). The protein content was determined using a dye-binding microassay (Bio-Rad, Hercules, Calif.), and 10-50 μg protein per lane was electrophoresed on 4-12% SDS polyacrylamide gels. Proteins were blotted onto Hybond ECL membranes (Amersham Pharmacia Biotech, Piscataway, N.J.). Two protein ladders were used for molecular weight determination (GenDEPOT, Barker, Tex.). The blotted proteins were detected using an enhanced chemiluminescence detection system (iNtRON, Seoul, Korea). Data were quantified and analyzed with Image-J software.

**Q.** Which results are given for `N.N.[Cl][Pt][Cl]` [cisplatin, Cis-Diamineplatinum(II) dichloride]?
**A.** tumor progression (MG-63/GFRα1 tumors): allowed the tumors to survive; tumor volume compared to PBS-treated mice (MG-63/GFRα1 tumors): decreased; level of phosphorylated AMPK [1]: increased; level of phosphorylated S6K (P70-S6Kinase) [1]: decreased; level of phosphorylated Src [1]: increased; level of phosphorylated mTOR [1]: decreased
